Earlier results as cited in patent US9006268B2, “Prolylcarboxypeptidase inhibitors” (Merck Sharp & Dohme Corp., priority 2010, dated 2015).

Key:
[1] = literature studies of weight loss medications
[2] = system: obese, leptin deficient mice; settings: systemic administration to obese
rats = settings: intracerebroventricular administration to rats

Molecule: CCN[C@@H](C)Cc1cccc(C(F)(F)F)c1 [dexfenfluramine]
- weight loss of body weight for drug compared to placebo [1]: 5%-10%

Molecule: CCCCCCCCCCC[C@@H](C[C@@H]1OC(=O)[C@H]1CCCCCC)OC(=O)[C@H](CC(C)C)NC=O [orlistat]
- weight loss of body weight for drug compared to placebo [1]: 5%-10%

Molecule: CC(C)(N)Cc1ccccc1 [phentermine]
- weight loss of body weight for drug compared to placebo [1]: 5%-10%

Molecule: CC(C)CC(N(C)C)C1(c2ccc(Cl)cc2)CCC1 (stereo not drawn) [sibutramine]
- weight loss of body weight for drug compared to placebo [1]: 5%-10%

Molecule: t-butyl carbamate-prolyl prolinal [BPP]
- overnight food intake [2]: suppression of overnight food intake
- overnight food intake (rats): suppression of overnight food intake
